Data taken from US20080207544A1, “Compositions And Methods For Delivery Of Agents Into Cells” (priority 2005, published 2008).

Assays:
[1] = test system: RG2 cells; assay: Luciferase gene transfer activity of modified lipoplexes in RG2 cells; format: cell-based, rat; conditions: 48 hours, 1 μg per well
Method: FIG. 12. In vitro gene transfer activity of lipoplexes modified with different lipids. Complexes with DOPE-MPB-Cys, DOPE or CXCR4-lipopeptide were incubated with RG2 cells (1 μg pLC0888/well). Each point is an average of three wells ±SD.
Preparation of lipoplexes. The lipid-based transfection-reagent (Genzyme lipid 89:Lym-X-Sorb:Vitamin E 10:89:1) was prepared aseptically by mixing 8 μl of Genzyme lipid 89 (25 mg/ml in chloroform or 0.038 μmoles/μl) (Genzyme, Cambridge, Mass.); 7.5 μl Lym-X-Sorb (138 mg/ml in chloroform or 0.365 μmoles/μl) (Avanti Polar Lipids, Birmingham, Ala.) and 2.2 μl Vitamin E (5.905 mg/ml or 0.0137 μmoles/μl) (Sigma, St Louis, Mo.) in a clean reagent-tube. Once the lipids were thoroughly mixed the solvent was evaporated using argon. Residual solvent was removed by placing the vial under a vacuum in the desiccator for 30 mins. The dried lipid-film was hydrated with 3 ml of HEPES Buffered Saline (HBS; 7.5 mM HEPES, 150 mM NaCl). After hydration the transfection-mixture was bath-sonicated for 5 minutes. […]
Luciferase-Assay. […] 150 μl of lysisbuffer (0.1 M potassium phosphate buffer; 1% Tx-100; 1 mM DTT; 2 mM EDTA; pH=7.8) (Sigma, St. Louis, Mo.) was added to each well and the plate was stored at −80° C. for 10 minutes or until ready to be assayed. […]

[2] = test system: B16 melanoma cells; assay: Luciferase transfection of B16 cells with FGF receptor targeted lipoplexes; format: cell-based; conditions: same experimental conditions as RG2
Method: FIG. 13. Transfection of B16 cells by implementation of FGF receptor targeted lipoplexes. Transfection With CXCR4-ligand targeted lipoplexes leads to increased transfection-efficiency in vitro. Whether increased specific binding to cells expressing the targeted receptor leads to increased transfection-efficiency in vitro is tested by transfecting cells with targeted and untargeted lipoplexes expressing the reporter-enzyme luciferase. Many tumor cell-lines express CXCR4, including the RG2 cell-line (as confirmed by flow cytometry; data not shown). These cells are efficiently transfected with lipoplexes prepared as described in the materials and methods section. Transfection of cells with untargeted lipoplexes coding for GFP at a dose of 1 μg DNA per 50,000 cells typically leads to a 30-40% transfection-efficiency after 48 hours (data not shown). However, whenever the lipid-composition of the optimized formulation was changed by titrating in cysteine-modified DOPE-MPB (DOPE-MPB-Cys) or DOPE instead of Lym-X-Sorb (i.e. modification of helper-lipids); the transfection-efficiency decreased steadily. Even at low concentrations of DOPE-MPB-Cys and DOPE (1 molepercent) transfection-efficiency as measured by luciferase-expression after 48 hours (1 μg per well) was decreased by about 30% (100% being 4*10^4 RLU equivalent to 35 ng recombinant luciferase per well). […]

## CCCCCCCC/C=C\CCCCCCCC(=O)OC[C@H](COP(=O)(O)OCCN)OC(=O)CCCCCCC/C=C\CCCCCCCC [DOPE]
[1]; 1 molepercent modification-lipid instead of Lym-X-Sorb
  decrease of transfection-efficiency as measured by luciferase-expression: about 30%
[1]; 20 molepercent modification-lipid
  transfection-efficiency (luciferase): 3.9±1.1 % of control
[2]
  luciferase expression / transfection efficiency as a function of mol % of modifier lipid: decreased luciferase expression
